Test results from the NIST ThermoML archive (doi:10.1016/j.jct.2013.08.030).
Numbers after ± are expanded uncertainties.

Tests used:
[1] = 101.33 kPa, Liquid, Vibrating tube method
[2] = activity coefficient (dimensionless); of the first substance listed, at infinite dilution; xn = mol fraction of the nth substance listed; settings: 101 kPa, Liquid, Chromatography, x1 = 0

SMILES | mass density ([1]; 288.15 K) | mass density ([1]; 298.15 K) | mass density ([1]; 308.15 K) | mass density ([1]; 318.15 K) | mass density ([1]; 328.15 K) | mass density ([1]; 338.15 K) | mass density ([1]; 348.15 K) | mass density ([1]; 358.15 K) | mass density ([1]; 368.15 K) | activity coefficient ([2]; 318.15 K) | activity coefficient ([2]; 328.15 K) | activity coefficient ([2]; 338.15 K) | activity coefficient ([2]; 348.15 K) | activity coefficient ([2]; 358.15 K) | activity coefficient ([2]; 368.15 K)
CCCC[N+]1(C)CCOCC1.N#C[C-](C#N)C#N [4-butyl-4-methylmorpholinium tricyanomethanide] | 1073.6 ± 2.2 kg/m3 | 1067.03 ± 2.2 kg/m3 | 1060.79 ± 2.2 kg/m3 | 1054.69 ± 2.2 kg/m3 | 1048.61 ± 2.1 kg/m3 | 1042.61 ± 2.1 kg/m3 | 1036.67 ± 2.1 kg/m3 | 1030.77 ± 2.1 kg/m3 | 1024.3 ± 2.1 kg/m3 |  |  |  |  |  | 
CCCO [propan-1-ol] + CCCC[N+]1(C)CCOCC1.N#C[C-](C#N)C#N |  |  |  |  |  |  |  |  |  | 1.62 ± 0.11 | 1.52 ± 0.1 | 1.43 ± 0.09 | 1.35 ± 0.09 | 1.29 ± 0.08 | 1.23 ± 0.08
CC(C)O [propan-2-ol] + CCCC[N+]1(C)CCOCC1.N#C[C-](C#N)C#N |  |  |  |  |  |  |  |  |  | 1.71 ± 0.11 | 1.59 ± 0.11 | 1.5 ± 0.1 | 1.4 ± 0.09 | 1.33 ± 0.09 | 1.25 ± 0.08
c1ccncc1 [pyridine] + CCCC[N+]1(C)CCOCC1.N#C[C-](C#N)C#N |  |  |  |  |  |  |  |  |  | 0.733 ± 0.049 | 0.748 ± 0.049 | 0.758 ± 0.05 | 0.766 ± 0.05 | 0.766 ± 0.05 | 0.788 ± 0.051
C=Cc1ccccc1 [styrene] + CCCC[N+]1(C)CCOCC1.N#C[C-](C#N)C#N |  |  |  |  |  |  |  |  |  | 1.82 ± 0.12 | 1.86 ± 0.13 | 1.9 ± 0.13 | 1.93 ± 0.13 | 1.96 ± 0.13 | 1.99 ± 0.14
C1CCOC1 [tetrahydrofuran] + CCCC[N+]1(C)CCOCC1.N#C[C-](C#N)C#N |  |  |  |  |  |  |  |  |  | 1.12 ± 0.07 | 1.15 ± 0.07 | 1.17 ± 0.07 | 1.18 ± 0.08 | 1.21 ± 0.08 | 1.22 ± 0.08
c1ccsc1 [thiophene] + CCCC[N+]1(C)CCOCC1.N#C[C-](C#N)C#N |  |  |  |  |  |  |  |  |  | 1.01 ± 0.06 | 1.04 ± 0.07 | 1.06 ± 0.07 | 1.08 ± 0.07 | 1.1 ± 0.07 | 1.12 ± 0.07
Cc1ccccc1 [toluene] + CCCC[N+]1(C)CCOCC1.N#C[C-](C#N)C#N |  |  |  |  |  |  |  |  |  | 2.3 ± 0.16 | 2.33 ± 0.16 | 2.36 ± 0.16 | 2.38 ± 0.16 | 2.41 ± 0.16 | 2.43 ± 0.17
O [water] + CCCC[N+]1(C)CCOCC1.N#C[C-](C#N)C#N |  |  |  |  |  |  |  |  |  | 1.03 ± 0.06 | 0.971 ± 0.061 | 0.916 ± 0.058 | 0.86 ± 0.055 | 0.819 ± 0.053 | 0.78 ± 0.051
